Records with an inconclusive call do not appear.

The EC50 is the concentration giving half of the maximal effect.

The subject of the assay is H4 cells, SNCA 5'UTR luciferase reporter translation. Nature of the assay: inhibitors of SNCA 5'UTR-driven reporter translation, confirmation, luminescence (AID 1988).
As for `C=C(C=O)CC1CC(O)[C@]2(C)OC3CC4OC5C[C@]6(C)O[C@]7(C)CCC8OC9C[C@]%10(C)OC%11C(C)=CC(=O)OC%11CC%10OC9C[C@@H](C)C8OC7CC6O[C@]5(C)CC5OC5C4OC3CC2O1` (stereo partly drawn), the EC50 is 7.35 µM. To `C#CCOCCOCCOCCNc1nc(N2CCN(C(=O)CCCCCCCCCCNC(=O)[C@H](CO)n3cc(CCCSC)nn3)CC2)nc(N2CCN(C(=O)CCCCCCCCCCNC(=O)[C@H](CCCCN)n3cc(C[C@@H](C)CC)nn3)CC2)n1` belongs 7.11 µM.

As to `COc1ccc(O)c2c(=O)c3c(OC)cc4c(c3oc12)C1C=COC1O4` (stereo not drawn), the EC50 was under 0.1 µM.

The values above are taken from PubChem BioAssay AID1988 (Broad Institute, 2009).
